Measurements published in patent US10800791B2, “Triazole ACC inhibitors and uses thereof” (Gilead Apollo, LLC, priority 2015, dated 2020).
Converted amounts (≈) assume the structure as drawn.

Legend:
human (hACC2) = human (hACC2) (Homo sapiens, UniProt O00763); test: In vitro ACC inhibition assay (ADP-Glo), hACC2; format: biochemical; conditions: Table 2b, additional results, 5 nM ACC2, 20 μM ATP, 20 μM acetyl-CoA
Protocol: The detailed procedure is as follows. […] 10 μL ADP glo reagent was added. […] 20 μL kinase detection reagent was added.

C. albicans = test: Antifungal Activity Assay (broth microtiter MIC), C. albicans; format: cell-based, Candida albicans; conditions: Candida albicans, ATCC90028, 48 h, Table 3b (additional results); ATCC 90028; 3 replicates; MIC recorded at 48 h; read-out: MIC, C. albicans ATCC 90028
Summary of the method: (§1)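 CLSI M27-A3 microdilution; RPMI 1640+MOPS; 2.5×10^3 CFU/mL final inoculum; cultures from Sabouraud dextrose agar, 35° C overnight; compound working solution 128 μg/mL from 1 mg/mL DMSO stock; visual MIC at 48 h vs growth control.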

C. krusei = test: Antifungal Activity Assay (broth microtiter MIC), C. krusei; format: cell-based, Candida krusei; conditions: Pichia kudriavzevii, ATCC6258, 48 h, Table 3b (additional results); ATCC 6258; 3 replicates; MIC recorded at 48 h; read-out: MIC, C. krusei ATCC 6258
Summary of the method: as §1

C. parapsilosis = test: Antifungal Activity Assay (broth microtiter MIC), C. parapsilosis; format: cell-based, Candida parapsilosis; conditions: Lodderomyces parapsilosis, ATCC22019, 48 h, Table 3b (additional results); ATCC 22019; 3 replicates; MIC recorded at 48 h; read-out: MIC, C. parapsilosis ATCC 22019
Summary of the method: as §1

Botrtyis cinerea (Bc) = test: Growth inhibition assay of fungal pathogens, Bc; format: cell-based; conditions: Botrtyis cinerea, growth inhibition at 48 hours vs 2% DMSO control; for IC90: 48 h, read-out: Concentration at 90% Inhibition Bc
Summary of the method: (§2)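 Read-out: OD600 plus visual rating at 24 and 48 h, blank (media + 2% DMSO) subtracted. Percent inhibition was derived at 48 h versus the 2% DMSO control. Spores were grown in 17% V8 broth with compound at 50/10/2 or 2/0.4/0.08 ppm final.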

[1] = system: Collectotrichum graminicola (Cg); test: Growth inhibition assay of fungal pathogens, Cg; format: cell-based; conditions: Collectotrichum graminicola, growth inhibition at 48 hours vs 2% DMSO control; for IC90: 48 h, read-out: Concentration at 90% Inhibition Cg
Summary of the method: as §2

Diplodia maydis (Dm) = test: Growth inhibition assay of fungal pathogens, Dm; format: cell-based; conditions: Stenocarpella maydis, 48 h, Diplodia maydis; growth inhibition at 48 hours vs 2% DMSO control; read-out: Concentration at 90% Inhibition Dm
Summary of the method: as §2

[2] = system: Fusarium moniliforme (Fm); test: Growth inhibition assay of fungal pathogens, Fm; format: cell-based; conditions: Fusarium moniliforme, growth inhibition at 48 hours vs 2% DMSO control; for IC90: Fusarium verticillioides, 48 h, read-out: Concentration at 90% Inhibition Fm
Summary of the method: as §2

[3] = system: Fusarium virguliforme (Fv); test: Growth inhibition assay of fungal pathogens, Fv; format: cell-based; conditions: growth inhibition at 48 hours vs 2% DMSO control; for IC90: 48 h, read-out: Concentration at 90% Inhibition Fv
Summary of the method: as §2

[4] = system: Phytophthora capsici (Pc); test: Growth inhibition assay of fungal pathogens, Pc; format: cell-based; conditions: 48 h, growth inhibition at 48 hours vs 2% DMSO control, read-out: Concentration at 90% Inhibition Pc
Summary of the method: as §2

Rhizoctonia solani (Rs) = test: Growth inhibition assay of fungal pathogens, Rs; format: cell-based; conditions: 48 h, mycelial plugs, growth inhibition at 48 hours vs 2% DMSO control, read-out: Concentration at 90% Inhibition Rs
Septoria tritici (St) = test: Growth inhibition assay of fungal pathogens, St; format: cell-based; conditions: Zymoseptoria tritici, 48 h, Septoria tritici; growth inhibition at 48 hours vs 2% DMSO control; read-out: Concentration at 90% Inhibition St
Summary of the method: as §2

fungal (fACC2) = fungal (fACC2) (UniProt Q00955); conditions: read-out: fACC2 (in vitro ACC2 Inhibition Assay, IC50); Table 2b, additional results; ADP-Glo, 5 nM ACC2, 20 μM ATP, 20 μM acetyl-CoA
fungal (fACC2), sequence (Q00955 whole entry): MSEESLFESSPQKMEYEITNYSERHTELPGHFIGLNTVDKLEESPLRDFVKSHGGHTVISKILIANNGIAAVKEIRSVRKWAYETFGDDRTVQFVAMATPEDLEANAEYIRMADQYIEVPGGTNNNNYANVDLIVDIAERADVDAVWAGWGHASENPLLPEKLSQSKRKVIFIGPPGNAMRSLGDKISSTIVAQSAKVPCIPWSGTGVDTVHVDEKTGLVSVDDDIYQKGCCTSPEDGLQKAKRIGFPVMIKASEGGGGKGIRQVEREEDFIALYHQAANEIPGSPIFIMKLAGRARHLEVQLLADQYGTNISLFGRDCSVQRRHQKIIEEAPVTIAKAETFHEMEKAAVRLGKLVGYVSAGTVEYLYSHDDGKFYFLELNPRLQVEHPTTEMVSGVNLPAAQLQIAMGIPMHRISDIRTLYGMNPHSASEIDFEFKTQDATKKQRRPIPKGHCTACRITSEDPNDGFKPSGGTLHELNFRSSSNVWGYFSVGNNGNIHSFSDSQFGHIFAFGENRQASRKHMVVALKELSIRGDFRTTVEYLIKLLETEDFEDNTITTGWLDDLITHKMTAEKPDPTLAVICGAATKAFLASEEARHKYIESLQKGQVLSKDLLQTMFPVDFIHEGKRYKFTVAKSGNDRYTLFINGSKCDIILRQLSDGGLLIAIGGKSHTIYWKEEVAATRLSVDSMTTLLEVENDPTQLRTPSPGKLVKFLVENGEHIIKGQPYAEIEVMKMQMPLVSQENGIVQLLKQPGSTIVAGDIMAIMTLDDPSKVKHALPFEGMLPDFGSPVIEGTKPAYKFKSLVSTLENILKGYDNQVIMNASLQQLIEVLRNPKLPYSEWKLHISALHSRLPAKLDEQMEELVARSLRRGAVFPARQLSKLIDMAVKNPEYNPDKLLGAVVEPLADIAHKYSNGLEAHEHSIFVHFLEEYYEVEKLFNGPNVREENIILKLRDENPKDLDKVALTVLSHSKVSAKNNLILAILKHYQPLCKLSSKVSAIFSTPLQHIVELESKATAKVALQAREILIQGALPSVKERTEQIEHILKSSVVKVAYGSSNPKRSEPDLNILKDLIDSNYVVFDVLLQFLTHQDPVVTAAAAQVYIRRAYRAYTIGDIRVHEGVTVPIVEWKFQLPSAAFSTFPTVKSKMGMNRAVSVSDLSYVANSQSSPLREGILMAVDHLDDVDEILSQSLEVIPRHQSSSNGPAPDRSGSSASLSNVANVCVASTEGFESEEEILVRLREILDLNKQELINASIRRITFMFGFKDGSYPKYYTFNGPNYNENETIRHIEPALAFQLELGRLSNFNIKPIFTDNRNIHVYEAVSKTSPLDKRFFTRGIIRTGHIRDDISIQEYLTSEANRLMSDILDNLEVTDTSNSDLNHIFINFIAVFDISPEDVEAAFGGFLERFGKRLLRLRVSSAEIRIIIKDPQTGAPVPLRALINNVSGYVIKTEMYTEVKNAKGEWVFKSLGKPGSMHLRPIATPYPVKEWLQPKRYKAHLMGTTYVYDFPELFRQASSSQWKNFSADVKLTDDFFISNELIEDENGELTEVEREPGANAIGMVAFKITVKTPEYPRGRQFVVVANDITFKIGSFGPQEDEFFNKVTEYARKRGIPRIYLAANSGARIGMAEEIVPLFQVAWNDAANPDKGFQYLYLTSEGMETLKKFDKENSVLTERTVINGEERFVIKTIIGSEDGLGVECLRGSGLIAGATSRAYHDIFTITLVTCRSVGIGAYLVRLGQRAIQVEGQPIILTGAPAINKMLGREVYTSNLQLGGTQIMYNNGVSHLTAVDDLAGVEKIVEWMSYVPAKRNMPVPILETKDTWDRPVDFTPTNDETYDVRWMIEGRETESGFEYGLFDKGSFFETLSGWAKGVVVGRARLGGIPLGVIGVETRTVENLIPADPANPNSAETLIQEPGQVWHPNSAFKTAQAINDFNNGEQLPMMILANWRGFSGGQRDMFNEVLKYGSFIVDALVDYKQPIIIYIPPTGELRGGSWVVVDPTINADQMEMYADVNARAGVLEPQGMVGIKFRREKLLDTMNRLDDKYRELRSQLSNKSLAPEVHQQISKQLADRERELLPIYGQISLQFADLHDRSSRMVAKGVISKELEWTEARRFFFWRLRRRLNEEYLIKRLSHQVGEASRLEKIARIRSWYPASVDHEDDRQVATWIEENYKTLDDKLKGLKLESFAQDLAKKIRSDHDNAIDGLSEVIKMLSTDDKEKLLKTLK

human (hACC2), sequence (O00763 whole entry): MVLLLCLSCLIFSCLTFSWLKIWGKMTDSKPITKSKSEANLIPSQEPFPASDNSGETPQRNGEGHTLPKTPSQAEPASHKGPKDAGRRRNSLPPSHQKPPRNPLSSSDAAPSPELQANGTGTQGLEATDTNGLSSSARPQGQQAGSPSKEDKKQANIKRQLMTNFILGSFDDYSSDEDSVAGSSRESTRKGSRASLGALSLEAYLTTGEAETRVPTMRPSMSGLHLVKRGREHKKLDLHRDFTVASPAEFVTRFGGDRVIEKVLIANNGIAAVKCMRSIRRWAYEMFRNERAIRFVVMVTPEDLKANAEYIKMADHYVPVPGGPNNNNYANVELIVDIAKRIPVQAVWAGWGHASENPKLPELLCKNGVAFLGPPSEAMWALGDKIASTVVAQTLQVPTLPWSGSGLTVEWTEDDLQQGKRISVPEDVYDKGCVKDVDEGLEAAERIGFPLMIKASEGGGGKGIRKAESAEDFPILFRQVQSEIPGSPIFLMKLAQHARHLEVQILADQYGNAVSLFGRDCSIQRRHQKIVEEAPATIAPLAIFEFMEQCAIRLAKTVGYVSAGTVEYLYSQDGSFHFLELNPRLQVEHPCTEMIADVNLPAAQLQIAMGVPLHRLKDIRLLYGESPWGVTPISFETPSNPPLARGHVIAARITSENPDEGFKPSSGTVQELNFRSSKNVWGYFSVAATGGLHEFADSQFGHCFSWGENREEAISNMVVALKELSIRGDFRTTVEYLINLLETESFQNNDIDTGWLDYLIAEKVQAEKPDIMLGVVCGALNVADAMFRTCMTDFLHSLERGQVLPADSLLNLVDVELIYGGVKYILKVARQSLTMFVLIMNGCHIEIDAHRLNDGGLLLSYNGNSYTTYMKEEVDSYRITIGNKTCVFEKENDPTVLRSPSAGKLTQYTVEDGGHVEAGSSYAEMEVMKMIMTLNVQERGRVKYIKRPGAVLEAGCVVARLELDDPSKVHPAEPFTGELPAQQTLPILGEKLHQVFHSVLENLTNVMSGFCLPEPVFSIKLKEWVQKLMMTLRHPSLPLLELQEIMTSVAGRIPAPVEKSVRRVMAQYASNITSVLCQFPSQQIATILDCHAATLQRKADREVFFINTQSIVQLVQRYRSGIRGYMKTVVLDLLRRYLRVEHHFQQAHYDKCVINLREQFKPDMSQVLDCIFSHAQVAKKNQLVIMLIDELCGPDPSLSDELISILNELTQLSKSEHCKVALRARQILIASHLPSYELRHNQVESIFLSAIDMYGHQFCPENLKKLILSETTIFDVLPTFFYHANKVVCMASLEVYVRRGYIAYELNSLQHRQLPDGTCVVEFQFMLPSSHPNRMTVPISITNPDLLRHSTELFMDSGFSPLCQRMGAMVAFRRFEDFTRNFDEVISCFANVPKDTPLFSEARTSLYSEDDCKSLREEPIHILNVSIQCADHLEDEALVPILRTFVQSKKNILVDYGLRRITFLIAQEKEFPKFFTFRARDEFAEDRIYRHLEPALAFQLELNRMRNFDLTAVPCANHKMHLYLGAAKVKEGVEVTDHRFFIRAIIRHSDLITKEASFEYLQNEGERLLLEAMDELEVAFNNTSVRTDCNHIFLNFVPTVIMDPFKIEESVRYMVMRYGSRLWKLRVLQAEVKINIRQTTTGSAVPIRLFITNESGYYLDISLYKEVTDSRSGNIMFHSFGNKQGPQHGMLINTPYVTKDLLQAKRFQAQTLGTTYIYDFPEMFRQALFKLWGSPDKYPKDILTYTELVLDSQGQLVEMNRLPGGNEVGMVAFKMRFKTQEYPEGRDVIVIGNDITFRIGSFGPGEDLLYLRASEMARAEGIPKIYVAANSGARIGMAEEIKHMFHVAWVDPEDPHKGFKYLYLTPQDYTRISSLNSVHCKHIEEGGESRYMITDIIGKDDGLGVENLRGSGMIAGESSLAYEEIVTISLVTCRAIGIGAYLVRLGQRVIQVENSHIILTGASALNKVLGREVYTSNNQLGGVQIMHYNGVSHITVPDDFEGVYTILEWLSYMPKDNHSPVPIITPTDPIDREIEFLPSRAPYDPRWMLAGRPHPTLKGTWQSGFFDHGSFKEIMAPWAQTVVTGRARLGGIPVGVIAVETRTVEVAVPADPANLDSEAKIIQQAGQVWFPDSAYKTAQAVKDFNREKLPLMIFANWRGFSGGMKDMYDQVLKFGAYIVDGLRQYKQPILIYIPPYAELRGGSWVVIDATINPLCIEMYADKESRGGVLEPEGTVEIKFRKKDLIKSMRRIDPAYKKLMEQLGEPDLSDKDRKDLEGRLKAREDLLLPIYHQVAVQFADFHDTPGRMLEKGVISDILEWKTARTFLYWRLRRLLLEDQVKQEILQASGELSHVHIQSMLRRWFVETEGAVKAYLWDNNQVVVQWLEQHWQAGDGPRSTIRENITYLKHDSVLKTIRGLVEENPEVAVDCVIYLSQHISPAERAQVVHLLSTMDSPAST

| SMILES | IC50 (human (hACC2)) [µM] | MIC (C. albicans) [µg/mL] | MIC (C. krusei) [µg/mL] | MIC (C. parapsilosis) [µg/mL] | IC90 (Botrtyis cinerea (Bc)) [µg/mL] | IC90 [1] [µg/mL] | IC90 (Diplodia maydis (Dm)) [µg/mL] | IC90 [2] [µg/mL] | IC90 [3] [µg/mL] | IC90 [4] [µg/mL] | IC90 (Rhizoctonia solani (Rs)) [µg/mL] | IC90 (Septoria tritici (St)) [µg/mL] | IC50 (fungal (fACC2)) [µM] | Concentration at 90% Inhibition Bc (Botrtyis cinerea (Bc)) | Concentration at 90% Inhibition Cg [1] | Concentration at 90% Inhibition Fm [2] | Concentration at 90% Inhibition Fv [3] |
| --- | --- | --- | --- | --- | --- | --- | --- | --- | --- | --- | --- | --- | --- | --- | --- | --- | --- |
| CCNC(=O)C(C)(C)n1c(=O)c2c(C)c(-n3nccn3)sc2n(C[C@H](OC(C)=O)c2cc(F)ccc2OC)c1=O [Compound I-257] | > 0.04 | 2.01 to 4 (≈ 3.51 to 6.99 µM) | 1.01 to 2 (≈ 1.76 to 3.49 µM) | 2.01 to 4 (≈ 3.51 to 6.99 µM) | > 50 | > 50 | > 50 | 10 (≈ 17.5 µM) | > 50 | > 50 | > 50 | > 50 | 0.005 to 0.01 | – | – | – | – |
| COc1ccc(F)cc1[C@H](Cn1c(=O)n(C(C)(C)C(=O)NC(C)C)c(=O)c2c(C)c(-n3nccn3)sc21)OC(C)=O [Compound I-258] | > 0.04 | 0.25 to 1 (≈ 0.426 to 1.7 µM) | 0.25 to 1 (≈ 0.426 to 1.7 µM) | 1.01 to 2 (≈ 1.72 to 3.41 µM) | 10 (≈ 17 µM) | > 50 | > 50 | 10 (≈ 17 µM) | 10 (≈ 17 µM) | > 50 | > 50 | > 50 | 0.005 to 0.01 | – | – | – | – |
| CCNC(=O)C(C)(C)n1c(=O)c2c(C)c(-n3nccn3)sc2n(C[C@@H](OC(C)=O)c2cc(F)ccc2OC)c1=O [Compound I-260] | 0.01 to 0.04 | 2.01 to 4 (≈ 3.51 to 6.99 µM) | 1.01 to 2 (≈ 1.76 to 3.49 µM) | 2.01 to 4 (≈ 3.51 to 6.99 µM) | 2 (≈ 3.49 µM) | 10 (≈ 17.5 µM) | 10 (≈ 17.5 µM) | 0.4 (≈ 0.699 µM) | 2 (≈ 3.49 µM) | > 50 | 2 (≈ 3.49 µM) | > 50 | 0.0003 to 0.001 | – | – | – | – |
| COc1ccc(F)cc1[C@H](Cn1c(=O)n(C(C)(C)C(=O)NC(C)C)c(=O)c2c(C)c(-n3nccn3)sc21)OC(=O)CO [Compound I-262] | > 0.04 | 0.25 to 1 (≈ 0.415 to 1.66 µM) | 0.06 to 0.249 (≈ 0.0996 to 0.413 µM) | 1.01 to 2 (≈ 1.68 to 3.32 µM) | > 50 | > 50 | > 50 | 10 (≈ 16.6 µM) | 10 (≈ 16.6 µM) | > 50 | > 50 | > 50 | 0.005 to 0.01 | – | – | – | – |
| COc1ccc(F)cc1CCn1c(=O)n(C(C)(C)C(=O)NC(C)C)c(=O)c2c(C)c(-n3nccn3)sc21 [Compound I-266] | 0.005 to 0.01 | 1.01 to 2 (≈ 1.91 to 3.78 µM) | 0.25 to 1 (≈ 0.473 to 1.89 µM) | 1.01 to 2 (≈ 1.91 to 3.78 µM) | – | – | 10 (≈ 18.9 µM) | – | – | > 50 | 2 (≈ 3.78 µM) | > 50 | 0.001 to 0.005 | B (compound concentration of 2.0 ppm at 90% inhibition of fungal pathogens) | B (compound concentration of 2.0 ppm at 90% inhibition of fungal pathogens) | B (compound concentration of 2.0 ppm at 90% inhibition of fungal pathogens) | B (compound concentration of 2.0 ppm at 90% inhibition of fungal pathogens) |
